Test results published in patent US4275071A, “Imidazole derivatives” (Recordati S.A., priority 1978, dated 1981).
Where two headings read alike, the source gives them in different places.

Legend:
[1] = system: pentylenetetrazol (Metrazol) seizure in mice; assay: Subcutaneous pentylenetetrazol (Metrazol) seizure threshold test (MET) in the mouse; assay type: in vivo; details: 1 h, read-out: ED50 - MET
[2] = system: maximum electroshock seizure in mice; assay: Maximum electroshock seizure test (MES) in the mouse; assay type: in vivo, mouse (albino race); details: read-out: ED50 - MES
in vivo = details: mouse, in vivo
From the text: (§1) As to MET, it is known that pentylene-tetrazol (metrazol) administered subcutaneously to mice in a loose fold of skin on the back of the neck, produces seizures. […] Failure to observe even a threshold seizure is defined as protection. In the same table the LD50 values (lethal dose 50), evaluated in the mouse both I.p. and per os, are given.

mouse = assay: in vivo; details: i.p.
From the text: as §1

[3] = ip, mouse, i.p., electroshock 60 Hz, 0.2 sec, 25 mA, 30 or 60 minutes after administration
[4] = po, mouse, os, electroshock 60 Hz, 0.2 sec, 25 mA, 30 or 60 minutes after administration
[5] = ip, mouse, i.p., pentylenetetrazol 130 mg/Kg s.c. 30 minutes after administration, observed 60 minutes
[6] = po, mouse, os, pentylenetetrazol 130 mg/Kg s.c. 60 minutes after administration, observed 60 minutes

Row | Compound | ED50 ([1]; Mus musculus, ip) [mg/kg] | ED50 ([1]; Mus musculus, po) [mg/kg] | ED50 [2, 3] [mg/kg] | ED50 [2, 4] [mg/kg] | ED50 ([2]; Mus musculus, ip) [mg/kg] | ED50 ([2]; Mus musculus, po) [mg/kg] | LD50 (in vivo; ip) [mg/kg] | LD50 (in vivo; po) [mg/kg] | ED50 [1, 5] [mg/kg] | ED50 [1, 6] [mg/kg] | LD50 (mouse) [mg/kg]
1 | Cc1c(C)c(C(=O)Cn2ccnc2)c(C)c(C)c1Cl [Compound 1517, 3-(N-imidazolyl-acetyl)-6-chloro-durene] | 150 | 150 | 80 | 80 |  |  |  |  |  |  | 
2 | OC(Cn1ccnc1)c1ccc(CCc2ccccc2)cc1 (stereo not drawn) [15/1533, 4-[1"-hydroxy-2"-(N-imidazolyl)-ethyl]-bibenzyl] | 9 | 10 | 10 | 12 |  |  |  |  |  |  | 
3 | C(=Cn1ccnc1)c1ccc(-c2ccccc2)cc1 [Compound 1598, 4-(N-imidazolyl-vinylene)-biphenyl] | 69 | 80 |  |  | 185 | 145 |  |  |  |  | 
4 | CCC1(c2ccccc2)C(=O)NC(=O)NC1=O [Phenobarbital, phenobarbital, reference compound] | 9 | 10 |  |  | 14 | 18 | 242 | 245 |  |  | 
5 | CC(C)CCSc1ccc(C(O)Cn2ccnc2)cc1 (stereo not drawn) [Compound 1455] | 19 | 22 | 15 | 31 |  |  | 420 |  |  |  | 
6 | O=C(CCn1ccnc1)c1ccc(CCc2ccccc2)cc1 [Compound 1585] | 25 | 25 |  |  | 25 | 100 |  |  |  |  | 
7 | Cc1c(C)c([N+](=O)[O-])c(C)c(C)c1C(=O)Cn1ccnc1 [Compound 1429, 3-(N-imidazolyl-acetyl)-6-nitro-durene] | 100 | 52 | 75 | 54 |  |  |  |  |  |  | 
8 | Cc1c(C)c(C(=O)Cn2ccnc2)c(C)c(C)c1Br [Compound 1457, 3-(N-imidazolyl-acetyl)-6-bromo-durene] | 90 | 57 |  |  | 180 | 190 |  |  |  |  | 
9 | O=C1NC(=O)C(c2ccccc2)(c2ccccc2)N1 [Diphenylidantoin, diphenylidantoin, reference compound] |  |  | 6 | 10 |  |  |  |  | 6 | 5 | 
10 | Cc1c(C)c(C)c(C(=O)Cn2ccnc2)c(C)c1C [Compound 1518, 3-(N-imidazolyl-acetyl)-6-methyl-durene] | 23 | 50 | 13 | 45 |  |  |  | 1800 |  |  | 
11 | O=C(OC(Cn1ccnc1)c1ccc(-c2ccccc2)cc1)c1ccccc1 (stereo not drawn) [Compound 1575, 4-[1"-benzoyloxy-2"-(N-imidazolyl)-ethyl]-biphenyl] | 27 | 62 | 66 | 135 |  |  |  | 1300 |  |  | 
12 | OC(Cn1ccnc1)c1ccc(-c2ccccc2)cc1 (stereo not drawn) [Compound 1342, 4-[1"-hydroxy-2"-(N-imidazolyl)-ethyl]-biphenyl] | 25 | 20 |  |  | 25 | 25 | 1.15 |  |  |  | 
13 | OC(Cn1ccnc1)c1ccc(C2CCCCC2)cc1 (stereo not drawn) [Compound 1534, 1-[1'-hydroxy-2'-(N-imidazolyl)-ethyl]-4-cyclohexyl-benzene] |  |  | 50 | 60 |  |  | 490 | 2700 | 25 | 27 | 
14 | O=C(Cn1ccnc1)c1ccc(CCc2ccccc2)cc1 [Compound 1532, 4-(N-imidazolyl-acetyl)-bibenzyl] | 11 | 17 |  |  | 11 | 37 |  | 1.55 |  |  | 300
15 | CC(C)(C(O)c1ccc(-c2ccccc2)cc1)n1ccnc1 (stereo not drawn) [Compound 1492] |  |  | 24 | 27 |  |  | 420 | 2400 | 10 | 14 | 
16 | O=C(Cn1ccnc1)c1ccc(C2CCCCC2)cc1 [15/1803] | 18 | 32 |  |  | 66 | 92 |  |  |  |  | 
17 | Cc1c(C)c(C)c(C(O)Cn2ccnc2)c(C)c1C (stereo not drawn) [Compound 1516, 3-[1'-hydroxy-2'-(N-imidazolyl)-ethyl]-6-methyl-durene] |  |  | 46 | 57 |  |  | 655 | 1800 | 13 | 35 | 
18 | CC(C)(C(=O)c1ccc(-c2ccccc2)cc1)n1ccnc1 [Compound 1488, 4-[2"-methyl-2"-(N-imidazolyl)-propionyl]-biphenyl] | 25 | 37 |  |  | 30 | 34 |  | 1.87 |  |  | 
19 | Cc1cc(C)c(C)c(C(=O)Cn2ccnc2)c1C [Compound 1323, 3-(N-imidazolyl-acetyl)-durene] | 19 | 28 |  |  | 18 | 33 | 420 | 1.17 |  |  | 
20 | CC(C(O)c1ccc(Sc2ccccc2)cc1)n1ccnc1 (stereo not drawn) [Compound 1540] | 39 | 150 |  |  | 155 | 150 |  |  |  |  | 
21 | Cc1c(C)c(C(O)Cn2ccnc2)c(C)c(C)c1Cl (stereo not drawn) [Compound 1515, 3-[1'-hydroxy-2'-(N-imidazolyl)-ethyl]-6-chloro-durene] | 150 | 75 | 300 | 150 |  |  |  |  |  |  | 
22 | O=C(Cn1ccnc1)c1ccc(-c2ccccc2)cc1 [Compound 1341, 4-(N-imidazolyl-acetyl)-biphenyl] | 28 | 10 |  |  | 54 | 76 |  |  |  |  | 
23 | CC(C)(C(O)c1ccc(Sc2ccccc2)cc1)n1ccnc1 (stereo not drawn) [Compound 1541] | 23 | 135 |  |  | 50 | 190 |  |  |  |  | 
24 | O=C(CCn1ccnc1)c1ccc(-c2ccccc2)cc1 [Compound 1490, 4-[3"-(N-imidazolyl)-propionyl]-biphenyl] | 15 | 30 |  |  | 60 | 36 |  |  |  |  | 360
